Measured values from ChEMBL document CHEMBL3301546, “MMV Malaria Box yeast growth screening”.

Assays:
Format in all cases: functional
Saccharomyces cerevisiae [1] = experiment: (§1) MMV: Growth assays were conducted using the prototrophic S. cerevisiae strain JHY222. Each MMV compound (0.1 mM) was tested in rich media containing dextrose as a carbon source (Yeast Extract, Peptone, Dextrose; YPD). The growth rate in the presence of each MMV compound was calculated as follows: (i) the first 10 OD readings were averaged and subtracted from all OD readings of the corresponding curve to set the baseline of the growth curve to zero, and (ii) the area under the curve (AUC) was then calculated as the sum of all OD readings. […] A relative growth value was calculated as follows: AUC(DRUG) - AUC(DMSO)/AUC(DMSO); where AUC(DMSO) represents growth measured in a DMSO control well that was on the same microtiter plate of the drug-treated culture.
Saccharomyces cerevisiae [2] = experiment: as §1, with “minimal” for “rich”, “Nitrogen Base,” for “Extract, Peptone,”, “YNBD).” for “YPD).”
Saccharomyces cerevisiae [3] = experiment: as §1, with “minimal” for “rich”, “ethanol and glycerol” for “dextrose”, “as” for “as a”, “sources” for “source”, “Nitrogen Base, Ethanol, Glycerol; YNBEG).” for “Extract, Peptone, Dextrose; YPD).”

| SMILES | Relative Growth (Saccharomyces cerevisiae [1]) | Relative Growth (Saccharomyces cerevisiae [2]) | Relative Growth (Saccharomyces cerevisiae [3]) |
| --- | --- | --- | --- |
| c1ccc(/C2=N/c3ccccc3/N=C(/c3ccccc3)c3ccccc32)cc1 | -0.0437 | -0.0429 | -0.1082 |
| Oc1ccccc1CN1CCC2(CCCN(Cc3ccccc3F)C2)C1 (stereo unspecified) | -0.0746 | -0.0494 | -0.309 |
| CCOC(=O)C1=C(C)N=c2sc(=Cc3ccccc3O)c(=O)n2C1c1ccc(OC)c2ccccc12 (stereo unspecified) | -0.9923 | 0.0217 | 0.0525 |
| Cc1ccc(-c2cc(C(=O)Nc3ccc(S(=O)(=O)N4CCCCC4)cc3)[nH]n2)c(O)c1 | -0.07 | -0.0309 | -0.0163 |
| CCOC(=O)C1=C(C)N=c2sc(=Cc3cc(Cl)ccc3O)c(=O)n2C1c1ccc(OC)cc1 (stereo unspecified) | -0.1268 | 0.1077 | 0.0816 |
| FC(F)(F)c1cccc(Nc2nc3ccccc3nc2Nc2cccc(C(F)(F)F)c2)c1 | -0.0449 | -0.0009 | -0.1177 |
| c1ccc(-c2ccc(-c3nc4ccccc4[nH]3)cc2)cc1 | -0.0154 | -0.0469 | 0.0562 |
| COc1ccc(CN2CCCC(C(=O)c3ccc(C(F)(F)F)cc3)C2)c(O)c1 (stereo unspecified) | -0.2476 | -0.4404 | -0.9168 |
| Cn1c(=O)c2cc(C(=O)NCCCN3CCCCCC3)sc2c2ccccc21 | -0.0314 | -0.1099 | 0.0018 |
| O=C(NC1CCCCC1)C(c1cccs1)N(CCc1ccccc1)C(=O)c1ccco1 (stereo unspecified) | -0.0109 | -0.1735 | -0.2518 |
| COc1ccc(C(=O)NC(c2ccc(Cl)cc2Cl)c2cc(Cl)c3cccnc3c2O)cc1 (stereo unspecified) | 0.0373 | -0.2517 | -0.3135 |
| COc1ccc(CNC2CCN(c3ccc(NC(=O)c4cccc(Cl)c4)cc3)CC2)cc1OC | -0.0405 | 0.0343 | -0.0282 |
| N=c1c2ccccc2nnn1-c1cccc(C(F)(F)F)c1 | -0.0528 | -0.1559 | -0.1336 |
| O=c1cc(NC2CCN(CCCc3ccccc3)CC2)c2cc(Cl)ccc2o1 | -0.0193 | 0.014 | 0.0246 |
| FC(F)(F)c1cccc(CNC2CCN(CCc3ccccc3)CC2)c1 | -0.0003 | -0.0056 | -0.3142 |
| COc1ccc(C2NCCc3c2[nH]c2ccccc32)cc1CN1CCN(c2ccc(F)cc2)CC1.Cl (stereo unspecified) | -0.0229 | 0.0397 | -0.0259 |
| O=C(Nc1ccc(Cl)cc1)N1CCN(c2ccc3nncn3n2)CC1 | 0.0021 | -0.0344 | 0.053 |
| COc1ccc(C2C(C(=O)Nc3cccc(OC)c3)c3ccccc3C(=O)N2C2CCCCC2)cc1 (stereo unspecified) | -0.0663 | 0.0321 | -0.1595 |
| CCN(CC)c1ccc(NC(=O)c2cccs2)cc1 | -0.0445 | -0.1938 | -0.4168 |
| CCOC(=O)c1cnc2ccc(Cl)cc2c1NCCCN(C)C | 0.0203 | 0.0022 | -0.0264 |
| CCCCNCC(O)(c1ccc(Cl)cc1)c1ccc(Cl)cc1 | 0.0298 | -0.2198 | -0.1782 |

| SMILES | Relative Growth (Saccharomyces cerevisiae [1]) | Relative Growth (Saccharomyces cerevisiae [2]) | Relative Growth (Saccharomyces cerevisiae [3]) |
| --- | --- | --- | --- |
| c1ccc2c(NCCc3c[nH]c4ccccc34)c3ccccc3nc2c1 | -0.7261 | -0.0449 | -0.0957 |
| O=C1c2ccccc2C2=Nc3ccccc3SC(c3cccc(F)c3)C12 (stereo unspecified) | 0.0574 | -0.0716 | -0.2808 |
| CCOC(=O)c1cnc2c(C)cccc2c1Nc1ccc(C(C)=O)cc1 | -0.0046 | -0.0028 | -0.0453 |
| Cc1ccc(-c2nc3ccccc3o2)cc1NCc1cc(Cc2ccccc2)ccc1O | -0.0705 | 0.0201 | -0.1416 |
| COc1ccccc1CNC(=O)C1c2ccccc2C(=O)N(CC(C)C)C1c1cccs1 (stereo unspecified) | -0.1327 | -0.0764 | -0.0424 |
| COc1ccc(C(O)(CCC(C)C)C(CN2CCOCC2)c2ccc(Cl)cc2)cc1.Cl (stereo unspecified) | -0.0809 | -0.0398 | -0.1228 |
| CCCCC(O)(c1ccc(Cl)cc1)C(CN1CCOCC1)c1ccc(Cl)cc1.Cl (stereo unspecified) | 0.0402 | -0.1088 | -0.0844 |
| COc1ccc(OC)c(C2C3=C(CC(C)(C)CC3=O)N(c3ccc(Cl)c(Cl)c3)C3=C2C(=O)CC(C)(C)C3)c1 | -0.0143 | -0.0153 | -0.1129 |
| COc1ccc(C(=O)NC(c2ccccc2Cl)c2cc(Cl)c3cccnc3c2O)cc1 (stereo unspecified) | -0.3676 | -1.0012 | -1.0144 |
| Cc1cccc(N2C(=O)C3C(C2=O)C2(c4ccccc4)C(=O)C3(c3ccccc3)C(c3ccc4c(c3)OCO4)=C2c2ccc3c(c2)OCO3)c1 (stereo unspecified) | -0.0089 | -0.0077 | -0.1627 |
| CCCc1c(C)nc2ccc(Br)cc2c1O | 0.0054 | -0.0231 | -0.1859 |
| COc1ccc(CCNC(=O)c2cc(S(=O)(=O)N3CC(C)CC(C)C3)ccc2Sc2ccc(F)cc2)cc1OC (stereo unspecified) | -0.1625 | -0.1001 | -0.0984 |
| Cc1ccc(F)cc1NC(=O)c1cc(Cl)ccc1Nc1ccccc1 | -0.0355 | -0.0972 | 0.1227 |
| CCCc1c(C)nc2ccccc2c1O | -0.0347 | -0.1078 | -0.1372 |
| CC1=C(CC(=O)c2cccc([N+](=O)[O-])c2)C(=O)c2ccccc2C1=O | -0.9318 | -1.0109 | -1.022 |
| OC1CCCCC1C1(NC(=S)Nc2ccccc2)CCCCC1 (stereo unspecified) | 0.0255 | -0.1203 | 0.0032 |
| CCCCCCC(O)(c1ccc(F)cc1)C(CN1CCOCC1)c1ccccc1.Cl (stereo unspecified) | -0.0019 | -0.1565 | -0.0435 |
| CCOc1c(Br)cc(C2C(C(=O)OC)=CN(C)C=C2C(=O)OC)cc1OC | -0.0344 | 0.0663 | -0.0572 |
| COc1ccc(C(=O)C2CC2c2ccc(Cl)cc2)cc1 (stereo unspecified) | -0.0484 | -0.0877 | -0.181 |
| CCCCCn1c(=N)n(CC(O)COc2cccc(C)c2)c2ccccc21.Cl (stereo unspecified) | 0.0144 | -0.2633 | -0.7976 |
| CCN(CC)CCCNc1nc(-c2ccc(Cl)cc2)nc2ccccc12 | -0.029 | 0.0809 | -0.0397 |
